What was measured:
[1] = Contrast (gamma) reduction by DI(A)R in single layer film element, C-41 process; details: DIR at 0.055 mmol/m^2, relative to non-inhibitor containing check; KODAK FLEXICOLOR (C-41)
Excerpt: The mild inhibitor fragments that are used in this invention are defined as those that cause less than a 45% gamma reduction, or more preferably less than a 40% gamma reduction, relative to a non-inhibitor containing check when coated as the following single layer film element on a cellulose triacetate film support (coverages are in g/m^2): […]
Overcoat Gelatin at 2.79 and 0.02 bis-vinylsulfonemethylether
Imaging Layer Gelatin at 2.79
Magenta Image Coupler M-1 (dispersed at 80% by
weight in tricresyl phosphate and 20% by weight
N,N-dibutyl-2-butoxy-5-t-octylaniline) at 0.692
DIR being tested at 0.055 mmol/m^2 (dispersed in twice
its weight in N,N-dibutyllauramide)
Green sensitized AgBrI at 1.08
Samples of each element were given a stepped exposure and processed in the KODAK FLEXICOLOR (C-41) process as described in British Journal of Photography Annual, 1988, pp 196-198. Contrast of the elements was determined using the maximum slope between any two density points.

[2] = Interimage in multilayer format (density change of receiver record); details: for R→G density difference (interimage) / B→G density difference (interimage): CDIR-1 in red
Excerpt: Multilayer Film Example ML-1:
Layer 1 (Antihalation layer): black collodial silver sol at 0.135; ILS-1 at 0.162,
Layer 2 (Slow cyan layer): a blend of two red sensitized (both with a mixture of RSD-1 and RSD-2) tabular silver iodobromide emulsions: (i) 0.66×0.12, 4.1 mole % I at 0.302 (ii) 0.55×0.08, 1.5 mole % I at 0.464; cyan dye-forming coupler C-1 at 0.535; DIR coupler CDIR-1 at 0.027; bleach accelerator releasing coupler B-1 at 0.057; masking coupler MC-1 at 0.032; and gelatin at 1.68.
Layer 3 (Mid cyan layer): a blend of two red sensitized (same as above) tabular silver iodobromide emulsions: (i) […], 4.1 mole % I at 0.194 (ii) 1.07×0.11, 4.1 mole % I at 0.238; cyan coupler C-1 at 0.171; CDIR-1 at 0.019; MC-1 at 0.032; B-1 at 0.008; and gelatin at 1.08.
Layer 4 (Fast cyan layer): a red sensitized (same as above) tabular silver iodobromide emulsion (1.33×0.12, 4.1 mole % I) at 0.594; C-1 at 0.184; CDIR-1 at 0.027; MC-1 at 0.022; and gelatin at 0.918.
Layer 5 (Interlayer): ILS-1 at 0.086 and gelatin at 0.540.
Layer 6 (Slow magenta layer): a blend of two green sensitized (both with a mixture of GSD-1 and GSD-2) silver iodobromide emulsions: (i) 0.81×0.12, 2.6 mole % iodide at 0.346 and (ii) 0.55×0.08, 1.5 mole % iodide at 0.130; magenta dye forming coupler M-1 at 0.270; MC-2 at 0.086; IDIR-5 at 0.011; and gelatin at 1.08.
Layer 7 (Mid magenta layer): a blend of two green sensitized (same as above) tabular silver iodobromide emulsions (i) 1.22×0.11, 4.1 mole % I at 0.248 and (ii) 1.07×0.11, 4.1 mole % I at 0.248; M-1 at 0.124; MC-2 at 0.119; IDIR-5 at 0.043; OxDS-2 at 0.016; and gelatin at 1.22.
Layer 8 (Fast magenta layer): a green sensitized tabular silver iodobromide (1.33×0.12, 4.1 mole % I) emulsion at 0.486; M-1 at 0.076; MC-2 at 0.054; B-1 at 0.003; IDIR-5 at 0.015; OxDS-2 at 0.009; and gelatin at 1.02.
Layer 9 (Yellow filter layer): yellow filter dye FD-1 at 0.054; ILS-1 at 0.086; and gelatin at 0.648.
Layer 10 (Slow yellow layer): a blend of three blue sensitized (all with a mixture of BSD-1 and BSD-2) tabular silver iodobromide emulsions (i) 0.55×0.08, 1.5 mole % I at 0.270 (ii) […], 1.5 mole % I at 0.248 and (iii) 1.25×0.14, 4.1 mole % I at 0.400; yellow dye forming coupler Y-2 at 1.08; IDIR-6 at 0.076; CDIR-1 at 0.032; B-1 at 0.022; and gelatin at 1.879.
Layer 11 (Fast yellow layer): a blend of two blue sensitized (both with a mixture of BSD-1 and BSD-2) tabular silver iodobromide emulsions (i) 1.25×0.14, 4.1 mole % I at 0.108 (ii) 2.67×0.13, 4.1 mole % I at 0.378; Y-2 at 0.238; IDIR-6 at 0.076; B-1 at 0.005; and gelatin at 0.810.
Layer 12 (Protective overcoat and UV filter layer): silver bromide Lippman emulsion at 0.216; UV-1 at a total of 0.108; gelatin at 1.242 and bis(vinylsulfonyl)methane hardener at 1.75% of total gelatin weight.
Surfactants, coating aids, emulsion addenda, sequestrants, thickeners, lubricants, matte and tinting dyes were added to the appropriate layers as is common in the art. […]
These multilayer coatings were given a stepped exposure in one color record but only flashed (non-imagewise exposure) in the other two records and processed as described for the bilayer experiments. To monitor interimage, a step nearest to density of 1.5 in the stepped color record (the causer) was chosen, and the difference in density of the other color records (the receivers) at that step and at the no exposure step of the causer was determined. […]

[3] = Interimage in bilayer format: IDIR-2 in blue layer, IEM in green layer; details: for Cg /Cb+g (interimage): IEM or CIEM in green layer at 7.2×10^-3 mmol/m^2, higher ratio = more interimage, no-IEM check; for Relative Speed (green layer): IEM or CIEM in green layer, speed point +0.15 density above Dmin, normalized to check
Protocol: (§1) Bilayer photographic elements were prepared by coating the following layers on a cellulose triacetate film support (coverages are in g/m^2). Unless otherwise noted, all comparative and inventive compounds were dispersed in twice their own weight of N,N-dibutyllauramide: […] Layer 3 (Interlayer): gelatin at 0.64, ILS-1 at 0.11 and FD-1 at 0.11. […] Layer 5 (Overcoat): gelatin at 2.79 and 0.02 bis-vinylsulfonemethylether. […] Contrast of the elements was determined using the maximum slope between any two density points. In this test, the ratio of the contrast of the green only exposure to the contrast of the green of a blue and green exposure (Cg /Cb+g) is a measure of the interimage. A higher ratio means more inhibition originating from the blue and affecting the green record. Relative speed of the green layer was determined by measuring the speed point +0.15 density units above Dmin and normalizing to the check position.

[4] = Interimage in bilayer format: IDIR-6 in blue layer, IEM in green layer; details: for Cg /Cb+g (interimage): IEM or CIEM in green layer at 7.2×10^-3 mmol/m^2; for Relative Speed (green layer): IEM or CIEM in green layer, normalized to check
Protocol: as §1

[5] = Interimage in bilayer format: IDIR-1 in green layer, IEM in blue layer
Protocol: Samples of each element were given a stepped exposure of either green light only or blue and green light combined and processed in the KODAK FLEXICOLOR™ (C4 1) process as described in British Journal of Photography Annual, 1988, pp196-198. Contrast of the elements was determined using the maximum slope between any two density points. […] A higher ratio means more inhibition originating from the blue and affecting the green record. Relative speed of the green layer was determined by measuring the speed point +0.15 density units above Dmin and normalizing to the check position.
Additional bilayer elements were prepared in a manner similar to above by coating the following layers:
Layer 1 (Antihalation Layer): black colloidial elemental silver at 0.34 and gelatin at 2.41.
Layer 2 (Causer Layer): gelatin at 2.79, IDIR-1 at 0.054, coupler M-1 (dispersed as described previously) added at 0.045, and 0.81 green sensitized AgIBr tabular emulsion.
Layer 3 (Interlayer): gelatin at 0.64, ILS-1 at 0.11 and FD-1 at 0.11.
Layer 4 (Receiver Layer): gelatin at 2.79, coupler Y-2 at 1.08, IDIR-6 at 0.076, 0.79 blue sensitized AgIBr tabular emulsion and (when present) IEM-4 (dispersed as above) at 0.0023.
Layer 5 (Overcoat): gelatin at 2.79 and 0.02 bis-vinylsulfonemethylether.

[6] = ML-4: IEM-4 in green, IDIR-2 in blue

CCCCCCCCCCCCCCOc1ccccc1NC(=O)c1cc(Oc2ccc(CSc3nnnn3-c3ccccc3)cc2[N+](=O)[O-])c2ccccc2c1O [CDIR-5]
% Contrast Reduction [1]: -70.5%

CCCCCCCCCCCCOC(=O)C(C)OC(=O)c1ccc(Cl)c(NC(=O)C(C(=O)Nc2cc(C(=O)OC(C)C(=O)OCCCCCCCCCCCC)ccc2Cl)n2nnc3cc(Cl)c(Cl)cc32)c1 (stereo not drawn) [IDIR-7]
% Contrast Reduction [1]: -20.0%

CCCCCCCCCCCCCCOc1ccccc1NC(=O)c1cc(Sc2nnnn2CC)c2ccccc2c1O [IDIR-8]
% Contrast Reduction [1]: -2.4%

CCC(Oc1ccc(C(C)(C)CC)cc1C(C)(C)CC)C(=O)Nc1ccc(N2N=C(N3CCCC3)C(Sc3nnnn3-c3ccccc3)C2=O)cc1 (stereo not drawn) [CDIR-2]
% Contrast Reduction [1]: -67.1%

CCCCCCCCCCCCCCOc1ccccc1NC(=O)c1cc(Oc2ccc(CSc3nnnn3Cc3ccc(OC)cc3)cc2[N+](=O)[O-])c2ccccc2c1O [CDIR-1]
% Contrast Reduction [1]: -55.4% | interimage, in words ([2]; Table IV, IEM in green layer): Interimage is not increased

CCCCCCCOC(=O)C(CCSC)n1nn[nH]c1=S (racemic) [IEM-4]
Cg /Cb+g (interimage) [3]: 1.62 | Relative Speed (green layer) [3]: 0.96 | Cg /Cb+g (interimage) [4]: 1.35 | Relative Speed (green layer) [4]: 0.94 | Cb /Cb+g (interimage) ([5]; IEM-4 in blue layer at 0.0023 g/m^2): 1.57 | Relative Speed ([5]; IEM-4 in blue layer at 0.0023 g/m^2, normalized to check): 0.98 | R→G density difference (interimage) ([2]; ML-3: IEM-4 in green, IDIR-6 in blue): -0.206 | B→G density difference (interimage) ([2]; ML-3: IEM-4 in green, IDIR-6 in blue, more negative = increased interimage): -0.129 | B→G density difference (interimage) [2, 6]: -0.212 | R→G density difference (interimage) [2, 6]: -0.238

CC(=O)Nc1cccc(-n2nn[nH]c2=S)c1 [CIEM-1]
Cg /Cb+g (interimage) [3]: 1.19 | Relative Speed (green layer) [3]: 1.01 | Cg /Cb+g (interimage) [4]: 1.16 | Relative Speed (green layer) [4]: 1.01

CCCOC(=O)Cn1nnnc1SC1C(=O)N(c2ccc(NC(=O)C(CC)Oc3ccc(C(C)(C)CC)cc3C(C)(C)CC)cc2)N=C1N1CCCC1 (stereo not drawn) [IDIR-4]
% Contrast Reduction [1]: -22.6%

Source: US6190849A, “Photographic element containing ballasted tetrazole derivative and inhibitor releasing coupler” (priority 1999, dated 2001)
